According to the NIST ThermoML archive (doi:10.1016/j.jct.2012.11.017):

Test: xn = mol fraction of the nth substance listed
Details: Liquid, Vibrating tube method

CCCCCCCCCC [decane] + CCO
mass density [kg/m3]
Details | x2 = 0.25 | x2 = 0.5 | x2 = 0.75
303.2 K, 100 kPa | 726.4 | 732.8 | 746.3
303.2 K, 1000 kPa | 727.2 | 733.7 | 747.2
303.2 K, 2000 kPa | 728 | 734.5 | 748.1
303.2 K, 3000 kPa | 728.8 | 735.4 | 749
303.2 K, 4000 kPa | 729.6 | 736.3 | 749.8
303.2 K, 5000 kPa | 730.4 | 737.1 | 750.7
303.2 K, 6000 kPa | 731.3 | 738 | 751.6
303.2 K, 7000 kPa | 732.1 | 738.8 | 752.4
303.2 K, 8000 kPa | 732.9 | 739.7 | 753.3
303.2 K, 9000 kPa | 733.7 | 740.5 | 754.1
303.2 K, 10000 kPa | 734.5 | 741.3 | 755
323.2 K, 100 kPa | 709.6 | 715.8 | 728.5
323.2 K, 1000 kPa | 710.3 | 716.7 | 729.5
323.2 K, 2000 kPa | 711.2 | 717.7 | 730.6
323.2 K, 3000 kPa | 712.2 | 718.6 | 731.5
323.2 K, 4000 kPa | 713.1 | 719.6 | 732.6
323.2 K, 5000 kPa | 714 | 720.5 | 733.5
323.2 K, 6000 kPa | 714.9 | 721.5 | 734.5
323.2 K, 7000 kPa | 715.8 | 722.4 | 735.4
323.2 K, 8000 kPa | 716.8 | 723.3 | 736.4
323.2 K, 9000 kPa | 717.7 | 724.2 | 737.4
323.2 K, 10000 kPa | 718.6 | 725.2 | 738.4
